Here are results for 15 compounds from ChEMBL document CHEMBL4138158, “2-Arylbenzofurans from Artocarpus lakoocha and methyl ether analogs with potent cholinesterase inhibitory activity” (Eur J Med Chem, 2018).

Experiment [1] deals with Acetylcholinesterase (Electrophorus electricus) (UniProt O42275). The experiment can be described thus: Inhibition of electric eel AChE at 0.1 mg/ml using acetylthiocholine as substrate preincubated for 15 mins followed by substrate addition measured after 5 mins by Ellman's method. A general note: Ellman's reagent forms a yellow product with free thiols.
Sequence of Acetylcholinesterase (Electrophorus electricus) (O42275 24-633 limits assumed): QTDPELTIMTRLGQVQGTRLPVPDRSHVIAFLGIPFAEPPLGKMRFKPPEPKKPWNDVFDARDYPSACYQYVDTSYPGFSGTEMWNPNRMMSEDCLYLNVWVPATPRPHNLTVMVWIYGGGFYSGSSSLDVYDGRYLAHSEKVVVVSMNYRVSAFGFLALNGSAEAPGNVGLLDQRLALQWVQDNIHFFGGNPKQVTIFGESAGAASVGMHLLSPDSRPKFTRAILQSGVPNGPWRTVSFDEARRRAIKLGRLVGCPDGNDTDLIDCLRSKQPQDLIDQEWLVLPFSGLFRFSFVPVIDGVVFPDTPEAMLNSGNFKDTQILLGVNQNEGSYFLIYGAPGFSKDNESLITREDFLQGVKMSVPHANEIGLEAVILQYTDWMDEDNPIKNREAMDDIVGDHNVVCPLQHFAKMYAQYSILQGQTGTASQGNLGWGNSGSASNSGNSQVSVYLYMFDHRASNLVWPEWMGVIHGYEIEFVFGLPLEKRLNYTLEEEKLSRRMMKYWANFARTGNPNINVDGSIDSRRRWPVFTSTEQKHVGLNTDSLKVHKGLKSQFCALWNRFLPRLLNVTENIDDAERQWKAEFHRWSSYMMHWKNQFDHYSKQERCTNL
Experiment [2] has as its target T1, Cholinesterase (Homo sapiens, UniProt P06276). The experiment can be described thus: Potency index, ratio of galantamine IC50 to compound IC50 for inhibition of BChE (unknown origin).
Experiment [3] addresses T1, Cholinesterase. Kind of experiment: Inhibition of BChE (unknown origin) using thiocholine as substrate preincubated for 15 mins followed by substrate addition measured after 5 mins by Ellman's method.
In experiment [4] the target is T1, Cholinesterase. The experiment can be described thus: Inhibition of BChE (unknown origin) at 0.1 mg/ml using thiocholine as substrate preincubated for 15 mins followed by substrate addition measured after 5 mins by Ellman's method.
Experiment [5] concerns the target Acetylcholinesterase (Electrophorus electricus) (UniProt O42275). The experiment can be described thus: Potency index, ratio of galantamine IC50 to compound IC50 for inhibition of electric eel AChE.
In another experiment the target is Acetylcholinesterase (Electrophorus electricus, UniProt O42275). The experiment can be described thus: Inhibition of electric eel AChE using acetylthiocholine as substrate preincubated for 15 mins followed by substrate addition measured after 5 mins by Ellman's method.
Sequence of Acetylcholinesterase (O42275 whole entry): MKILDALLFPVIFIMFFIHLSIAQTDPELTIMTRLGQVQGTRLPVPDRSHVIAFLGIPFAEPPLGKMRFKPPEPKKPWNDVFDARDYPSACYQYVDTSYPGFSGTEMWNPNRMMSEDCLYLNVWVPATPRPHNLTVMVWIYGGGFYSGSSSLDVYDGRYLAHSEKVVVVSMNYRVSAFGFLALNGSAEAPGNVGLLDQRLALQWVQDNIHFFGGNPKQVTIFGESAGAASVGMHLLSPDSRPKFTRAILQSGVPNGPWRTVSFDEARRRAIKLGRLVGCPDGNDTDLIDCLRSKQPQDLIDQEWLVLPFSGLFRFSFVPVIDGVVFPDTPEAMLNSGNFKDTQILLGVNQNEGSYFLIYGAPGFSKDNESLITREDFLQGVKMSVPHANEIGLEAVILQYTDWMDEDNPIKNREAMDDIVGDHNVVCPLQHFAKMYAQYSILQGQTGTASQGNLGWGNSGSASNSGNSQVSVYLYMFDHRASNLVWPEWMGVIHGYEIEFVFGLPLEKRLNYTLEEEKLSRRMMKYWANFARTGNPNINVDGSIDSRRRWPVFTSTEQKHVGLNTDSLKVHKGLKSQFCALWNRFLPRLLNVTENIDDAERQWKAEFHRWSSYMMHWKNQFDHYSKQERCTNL
A short description of experiment [6]: Selectivity ratio of IC50 for BChE (unknown origin) to IC50 for electric eel AChE.

Calls of active or inactive are those of the source. No cut-off for these calls is given here.

T1 sequence (P06276 whole entry): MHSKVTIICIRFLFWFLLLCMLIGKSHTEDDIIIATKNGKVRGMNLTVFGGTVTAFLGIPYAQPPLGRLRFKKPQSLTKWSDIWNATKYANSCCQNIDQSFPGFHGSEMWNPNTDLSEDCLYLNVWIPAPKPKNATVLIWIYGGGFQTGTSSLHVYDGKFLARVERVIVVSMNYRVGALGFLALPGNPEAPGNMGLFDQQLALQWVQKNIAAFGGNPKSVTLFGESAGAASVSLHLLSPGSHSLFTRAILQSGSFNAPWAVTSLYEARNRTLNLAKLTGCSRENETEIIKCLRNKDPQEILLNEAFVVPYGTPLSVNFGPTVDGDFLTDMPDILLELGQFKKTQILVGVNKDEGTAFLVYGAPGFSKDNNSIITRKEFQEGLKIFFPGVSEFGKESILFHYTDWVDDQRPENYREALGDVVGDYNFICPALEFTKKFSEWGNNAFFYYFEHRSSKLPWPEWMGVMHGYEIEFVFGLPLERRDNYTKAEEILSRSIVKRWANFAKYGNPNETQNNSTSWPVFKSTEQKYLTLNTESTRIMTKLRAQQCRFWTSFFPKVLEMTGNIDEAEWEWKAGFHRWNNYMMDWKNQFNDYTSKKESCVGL

Turning to `COc1ccc2cc(-c3cc(O)c4c(c3CC=C(C)C)OC(C)(CCC=C(C)C)C=C4)oc2c1` (centres undefined), the inhibition result in experiment [1] is “inactive”. In addition, at Cholinesterase [2], the Ratio IC50 is less than 10. For the same compound, on Cholinesterase [3], half-maximal inhibition (IC50) was put at 1.11 µM.

For the compound `Oc1cc(O)c2c(c1)O[C@H](c1ccc(O)c(O)c1)[C@@H](O)C2`, the inhibition entry (in experiment [1]; at Cholinesterase [4]) was “inactive” throughout.

On to `CC(C)=CCCC1(C)C=Cc2c(O)cc(-c3cc4ccc(O)cc4o3)c(CC=C(C)C)c2O1` (centres undefined), for which the Ratio IC50 worked out at 2 in experiment [5] and 17.2 in experiment [6]. Further, the 50% inhibitory concentration (IC50) – broadly, the concentration that gives 50% inhibition – at Cholinesterase [3] came to 14.9 µM; against Acetylcholinesterase, 0.87 µM.

For the compound `CC(C)=CCCC1(C)C=Cc2c(O)cc(-c3cc4c(O)cc(O)cc4o3)c(CC=C(C)C)c2O1` (centres undefined), the Ratio IC50 in experiment [5] came to 2; in experiment [6], 8.05. Moreover, the IC50 came to 8.86 µM at Cholinesterase [3] and 1.1 µM at Acetylcholinesterase.

Take `COc1cc(O)c(C/C=C(\C)CCC=C(C)C)c(-c2cc3ccc(O)cc3o2)c1CC=C(C)C`: the inhibition result in experiment [1] was “inactive”. Besides, the Ratio IC50 on Cholinesterase [2] is less than 10. Further, the IC50 at Cholinesterase [3] amounted to 0.51 µM.

Regarding `COc1ccc2cc(-c3c(CC=C(C)C)c(O)cc(O)c3C/C=C(\C)CCC=C(C)C)oc2c1`, the inhibition entry in experiment [1] was “inactive”. For the same compound, at Cholinesterase [2], the Ratio IC50 is less than 10. At Cholinesterase [3], this compound registered an IC50 of 0.99 µM.

For `Oc1cc(O)cc(/C=C/c2ccc(O)cc2O)c1` [OXYRESVERATROL], in experiment [1], the inhibition entry is “inactive”. Inhibition against Cholinesterase [3] was half-maximal at 2.95 µM (IC50).

`COc1cc(OC)c(C/C=C(\C)CCC=C(C)C)c(-c2cc3ccc(O)cc3o2)c1CC=C(C)C`: the inhibition result (in experiment [1]; on Cholinesterase [4]) was “inactive” each time.

Regarding `CC(C)=CCC/C(C)=C/Cc1c(O)cc(O)c(CC=C(C)C)c1-c1cc2ccc(O)cc2o1` [LAKOOCHIN B], the Ratio IC50 turned out to be 2 in experiment [5], 37 on Cholinesterase [2] and 0.09 in experiment [6]. Also, the IC50 against Cholinesterase [3] worked out at 0.1 µM; against Acetylcholinesterase, 1.08 µM.

Regarding `COc1cc(OC)c(CC=C(C)C)c(-c2cc3ccc(O)cc3o2)c1CC=C(C)C` [LAKOOCHIN A], the IC50 against Cholinesterase [3] was 13.9 µM; on Acetylcholinesterase, 27.4 µM. Moreover, the Ratio IC50 in experiment [6] is 0.5.

As to `CC(C)=CCc1c(-c2cc3ccc(O)cc3o2)cc2c3c1O[C@@]1(C)CCC([C@@H]3C1)C(C)(C)O2` (some centres undefined), in experiment [1], the inhibition result is “inactive”. At Cholinesterase [3], this compound showed an IC50 of 1.56 µM.

With `COc1ccc2cc(-c3cc(OC)c4c(c3CC=C(C)C)OC(C)(CCC=C(C)C)C=C4)oc2c1` (centres undefined), the inhibition entry (in experiment [1]; at Cholinesterase [4]) was “inactive” throughout.

For `COc1cc(O)c(CC=C(C)C)c(-c2cc3ccc(O)cc3o2)c1C/C=C(\C)CCC=C(C)C`, the inhibition result in experiment [1] is “inactive”. Further, the Ratio IC50 at Cholinesterase [2] was less than 10. This compound also had an IC50 against Cholinesterase [3] of 0.63 µM.

`COc1cc(-c2cc3ccc(O)cc3o2)c(CC=C(C)C)c2c1C=CC(C)(CCC=C(C)C)O2` (centres undefined): in experiment [1], the inhibition result was “inactive”. Also, the Ratio IC50 on Cholinesterase [2] is less than 10. Also, inhibition against Cholinesterase [3] was half-maximal at 0.31 µM (IC50).

As for `COc1cc(O)c(CC=C(C)C)c(-c2cc3ccc(O)c(C/C=C(\C)CCC=C(C)C)c3o2)c1`, the results for the IC50 on Cholinesterase [3] and against Acetylcholinesterase were 47.2 µM and 61.9 µM, respectively. The Ratio IC50 in experiment [6] was 0.76.
